Among the data in patent US10183950B2, “Thienopyrimidine inhibitors of atypical protein kinase C” (Cancer Research Technology Limited, priority 2011, dated 2019) are IC50 values, retold here.

Read-outs that look alike come from different tables or passages of the source.

The target of this assay is T1, full-length human PKCι (Homo sapiens, UniProt P41743).
T1 construct: Recombinant, full-length human PKCι expressed in Sf21 insect cells is also commercially available; purchased; host or cells: Sf21 insect cells
T1 sequence (P41743 1-596): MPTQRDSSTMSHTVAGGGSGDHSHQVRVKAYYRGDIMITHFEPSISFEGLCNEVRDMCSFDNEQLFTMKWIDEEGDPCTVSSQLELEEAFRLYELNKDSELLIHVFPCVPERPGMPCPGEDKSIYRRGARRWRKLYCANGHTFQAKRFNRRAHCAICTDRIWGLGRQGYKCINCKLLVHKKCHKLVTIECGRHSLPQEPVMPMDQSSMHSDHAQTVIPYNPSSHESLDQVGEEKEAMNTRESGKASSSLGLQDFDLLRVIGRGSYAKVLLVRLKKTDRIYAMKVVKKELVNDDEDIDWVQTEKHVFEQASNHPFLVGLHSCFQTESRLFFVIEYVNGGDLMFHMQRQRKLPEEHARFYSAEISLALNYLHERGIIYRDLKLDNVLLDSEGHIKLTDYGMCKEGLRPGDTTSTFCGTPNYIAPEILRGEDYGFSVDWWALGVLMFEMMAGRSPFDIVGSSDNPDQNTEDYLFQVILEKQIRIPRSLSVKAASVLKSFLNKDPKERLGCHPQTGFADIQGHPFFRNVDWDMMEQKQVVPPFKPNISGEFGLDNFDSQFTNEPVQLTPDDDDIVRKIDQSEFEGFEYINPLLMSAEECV
The experiment in a line: PKCι IC50 IMAP fluorescence polarisation assay, full-length enzyme. It counts as biochemical. As for the experimental part:
Assays are based on the ability of PKCι to phosphorylate a commercially available peptide substrate in vitro. […] Recombinant, full-length human PKCι expressed in Sf21 insect cells is also commercially available. Recombinant, kinase-domain human PKCι is expressed and purified in-house.
The procedure below explains how dose response curves for inhibitors of PKCι are obtained.
Compounds to be tested are dissolved in 100% DMSO. […] 1 μl is plated into 384 well black low-binding flat bottomed assay plates which are used immediately. Dilutions and additions of compound to assay plates are carried out using Matrix WellMate® and Matrix PlateMate® Plus liquid handling systems.
The final concentration of peptide substrate in the assay is 100 nM. […] Relevant controls are included, namely no compound and no enzyme. […] The reaction is allowed to incubate for 60 minutes at room temperature, before the reaction is stopped and developed by the addition of 20 μl IMAP™ development reagent (Molecular Devices). IMAP development reagent consists of 0.25% (v/v) IMAP progressive binding reagent, 17% (v/v) IMAP progressive binding buffer A and 3% (v/v) IMAP progressive binding buffer B. The plates are then incubated for 2 hours at room temperature before being read using an appropriate plate reader, for example a Molecular Devices HT Analyst or a BMG Pherastar.

Setting [1] is: full length PKCi at 15 μM ATP, read-out: IC50 in IMAP assay against full length PKCi (Activity).
The mark [2] stands for this setting: full length PKCi at 15 μM ATP, read-out: IC50 in IMAP assay against full length PKCi.

A word on the IC50: it is the concentration needed to halve the response being measured. As to `CC(C)(C)OC(=O)N1CCc2c(sc3nc(-c4ccncc4)nc(NC[C@@H](N)Cc4ccccc4)c23)C1` [compound 90, 4-((S)-2-Amino-3-phenyl-propylamino)-2-pyridin-4-yl-5,8-dihydro-6H-pyrido[4′,3′:4,5]thieno[2,3-d]pyrimidine-7-carboxylic acid tert-butyl ester], the IC50 under setting [1] lay within 1 to 10 µM.

Take `C[C@H](N)CNc1nc(-c2ccncc2)nc2sc3c(c12)CCN(C(=O)OC(C)(C)C)C3` [compound 96, 4-((S)-2-Amino-propylamino)-2-pyridin-4-yl-5,8-dihydro-6H-pyrido[4′,3′:4,5]thieno[2,3-d]pyrimidine-7-carboxylic acid tert-butyl ester]: under setting [1], the IC50 fell in the range of 10 to 40 µM.

On to `N[C@H](CNc1nc(-c2ccncc2F)nc2sc3c(c12)CCCC3)Cc1ccccc1` [compound 101, (S)-N*1*-[2-(3-Fluoro-pyridin-4-yl)-5,6,7,8-tetrahydro-benzo[4,5]thieno[2,3-d]pyrimidin-4-yl]-3-phenyl-propane-1,2-diamine], for which the IC50 under setting [1] lay in the range of 1 to 10 µM.

Turning to `COc1cnccc1-c1nc(NC[C@@H](N)Cc2ccccc2)c2c3c(sc2n1)CCCC3` [compound 102, (S)—N*1*-[2-(3-methoxy-pyridin-4-yl)-5,6,7,8-tetrahydro-benzo[4,5]thieno[2,3-d]pyrimidin-4-yl]-3-phenyl-propane-1,2-diamine], the half-inhibitory concentration (IC50) under setting [1] was 10 to 40 µM.

With `N[C@H](CNc1nc(-c2ccncc2O)nc2sc3c(c12)CCCC3)Cc1ccccc1` [compound 103, 4-[4-((S)-2-Amino-3-phenyl-propylamino)-5,6,7,8-tetrahydro-benzo[4,5]thieno[2,3-d]pyrimidin-2-yl]-pyridin-3-ol], under setting [1], the IC50 was 1 to 10 µM.

As to `CC(C)(C)C(=O)N1CCc2c(sc3nc(-c4ccncc4)nc(NCCN)c23)C1` [compound 104, 1-[4-(2-amino-ethylamino)-2-pyridin-4-yl-5,8-dihydro-6H-pyrido[4′,3′:4,5]thieno[2,3-d]pyrimidin-7-yl]-2,2-dimethyl-propan-1-one], the IC50 under setting [1] fell in the range of 10 to 40 µM.

Consider `CC(=O)N1CCc2c(sc3nc(-c4ccncc4)nc(NCCN)c23)C1` [compound 105, 1-[4-(2-Amino-ethylamino)-2-pyridin-4-yl-5,8-dihydro-6H-pyrido[4′,3′:4,5]thieno[2,3-d]pyrimidin-7-yl]-ethanone], for which the IC50 under setting [1] was 1 to 10 µM.

Consider `CCC(=O)N1CCc2c(sc3nc(-c4ccncc4)nc(NCCN)c23)C1` [compound 106, 1-[4-(2-Amino-ethylamino)-2-pyridin-4-yl-5,8-dihydro-6H-pyrido[4′,3′:4,5]thieno[2,3-d]pyrimidin-7-yl]-propan-1-one], for which the IC50 under setting [1] lay in the range of 10 to 40 µM.

With `CC(C)C(=O)N1CCc2c(sc3nc(-c4ccncc4)nc(NCCN)c23)C1` [compound 107, 1-[4-(2-Amino-ethylamino)-2-pyridin-4-yl-5,8-dihydro-6H-pyrido[4′,3′:4,5]thieno[2,3-d]pyrimidin-7-yl]-2-methyl-propan-1-one], under setting [1], the IC50 was in the range of 10 to 40 µM.

`NCCNc1nc(-c2ccncc2)nc2sc3c(c12)CCN(C(=O)C1CC1)C3` [compound 108, [4-(2-Amino-ethylamino)-2-pyridin-4-yl-5,8-dihydro-6H-pyrido[4′,3′:4,5]thieno[2,3-d]pyrimidin-7-yl]-cyclopropyl-methanone]: the 50% inhibitory concentration (IC50) under setting [1] was 10 to 40 µM.

Take `NCCNc1nc(-c2ccncc2)nc2sc3c(c12)CCN(C(=O)C1CCC1)C3` [compound 109, [4-(2-Amino-ethylamino)-2-pyridin-4-yl-5,8-dihydro-6H-pyrido[4′,3′:4,5]thieno[2,3-d]pyrimidin-7-yl]-cyclobutyl-methanone]: under setting [1], the IC50 was 10 to 40 µM.

As for `CCCCC(=O)N1CCc2c(sc3nc(-c4ccncc4)nc(NCCN)c23)C1` [compound 110, 1-[4-(2-Amino-ethylamino)-2-pyridin-4-yl-5,8-dihydro-6H-pyrido[4′,3′:4,5]thieno[2,3-d]pyrimidin-7-yl]-pentan-1-one], under setting [1], the half-inhibitory concentration (IC50) lay in the range of 10 to 40 µM.

With `CN(C)CC(=O)N1CCc2c(sc3nc(-c4ccncc4)nc(NCCN)c23)C1` [compound 111, 1-[4-(2-Amino-ethylamino)-2-pyridin-4-yl-5,8-dihydro-6H-pyrido[4′,3′:4,5]thieno[2,3-d]pyrimidin-7-yl]-2-dimethylamino-ethanone], under setting [1], the IC50 lay within 10 to 40 µM.

`CCN1CCc2c(sc3nc(-c4ccncc4)nc(NCCN)c23)C1` [compound 112, N*1*-(7-ethyl-2-pyridin-4-yl-5,6,7,8-tetrahydro-pyrido[4′,3′:4,5]thieno[2,3-d]pyrimidin-4-yl)-ethane-1,2-diamine]: under setting [1], the IC50 was in the range of 10 to 40 µM.

As for `CN1CCc2c(sc3nc(-c4ccncc4)nc(NCCN)c23)C1` [compound 113, N*1*-(7-Methyl-2-pyridin-4-yl-5,6,7,8-tetrahydro-pyrido[4′,3′:4,5]thieno[2,3-d]pyrimidin-4-yl)-ethane-1,2-diamine], the concentration for half-maximal inhibition (IC50) under setting [1] lay in the range of 10 to 40 µM.

`CC(C)CN1CCc2c(sc3nc(-c4ccncc4)nc(NCCN)c23)C1` [compound 114, N*1*-(7-Isobutyl-2-pyridin-4-yl-5,6,7,8-tetrahydro-pyrido[4′,3′:4,5]thieno[2,3-d]pyrimidin-4-yl)-ethane-1,2-diamine]: the IC50 under setting [1] was in the range of 10 to 40 µM.

On to `c1cc(-c2nc(O[C@@H]3CCNC3)c3c4c(sc3n2)CCCC4)ccn1` [compound 139, 2-Pyridin-4-yl-4-((R)-pyrrolidin-3-yloxy)-5,6,7,8-tetrahydro-benzo[4,5]thieno[2,3-d]pyrimidine], for which, under setting [1], the IC50 was 1 to 10 µM.

On to `Cn1cc(-c2nc(NCCN)c3c4c(sc3n2)CCCC4)cn1` [compound 195, N*1*-[2-(1-Methyl-1H-pyrazol-4-yl)-5,6,7,8-tetrahydro-benzo[4,5]thieno[2,3-d]pyrimidin-4-yl]-ethane-1,2-diamine], for which the IC50 (enzyme form not given, no asterisk, read-out: Activity (IC50 printed as a bound, no asterisk)) was > 60 µM.

With `c1ccc(C[C@H]2CN(c3nc(-c4cn[nH]c4)nc4sc5c(c34)CCCC5)CCN2)cc1` [compound 196, 4-((S)-3-Benzyl-piperazin-1-yl)-2-(1H-pyrazol-4-yl)-5,6,7,8-tetrahydro-benzo[4,5]thieno[2,3-d]pyrimidine], under setting [1], the 50% inhibitory concentration (IC50) was in the range of 1 to 10 µM.

`Cc1sc2c(NC[C@@H](N)Cc3ccccc3)nc(-c3ccncc3)nc2c1Br` [compound 300, (S)—N*1*-(7-bromo-6-methyl-2-pyridin-4-yl-thieno[3,2-d]pyrimidin-4-yl)-3-phenyl-propane-1,2-diamine]: under setting [1], the IC50 is < 0.1 µM.

On to `COc1ccccc1C[C@H](N)CNc1nc(-c2ccncc2)nc2c(Br)c(C(C)(C)C)sc12` [compound 303, (S)—N*1*-(7-bromo-6-tert-butyl-2-pyridin-4-yl-thieno[3,2-d]pyrimidin-4-yl)-3-(2-methoxy-phenyl)-propane-1,2-diamine], for which the IC50 under setting [2] is 10 to 40 µM.

Take `N[C@H](CNc1nc(-c2ccncc2F)nc2c(Br)csc12)Cc1ccccc1` [compound 304, (S)—N*1*-[7-Bromo-2-(3-fluoro-pyridin-4-yl)-thieno[3,2-d]pyrimidin-4-yl]-3-phenyl-propane-1,2-diamine]: under setting [2], the IC50 is < 0.1 µM.

Regarding `C[C@H](N)CNc1nc(-c2ccncc2)nc2c(Br)csc12` [compound 305, (S)—N*1*-(7-Bromo-2-pyridin-4-yl-thieno[3,2-d]pyrimidin-4-yl)-propane-1,2-diamine], the IC50 under setting [2] was 0.1 to 1 µM.

As for `N[C@H](CNc1nc(-c2ccncc2)nc2c(Cl)csc12)Cc1ccccc1` [compound 306, (S)—N*1*-(7-Chloro-2-pyridin-4-yl-thieno[3,2-d]pyrimidin-4-yl)-3-phenyl-propane-1,2-diamine], the IC50 under setting [2] was < 0.1 µM.

For `Cc1sc2c(NCCN)nc(-c3ccncc3)nc2c1C` [compound 309, N*1*-(6,7-Dimethyl-2-pyridin-4-yl-thieno[3,2-d]pyrimidin-4-yl)-ethane-1,2-diamine], under setting [2], the IC50 was in the range of 1 to 10 µM.

For `NCCNc1nc(-c2ccncc2)nc2c(-c3ccc(Br)cc3)csc12` [compound 310, N*1*-[7-(4-Bromo-phenyl)-2-pyridin-4-yl-thieno[3,2-d]pyrimidin-4-yl]-ethane-1,2-diamine], under setting [2], the IC50 lay within 1 to 10 µM.

Consider `N[C@H](CNc1nc(-c2ccncc2)nc2ccsc12)Cc1ccccc1` [compound 314, (S)-3-Phenyl-N*1*-(2-pyridin-4-yl-thieno[3,2-d]pyrimidin-4-yl)-propane-1,2-diamine], for which the IC50 under setting [2] lay within 0.1 to 1 µM.
